From PMC4663167 (Insect biochemistry and molecular biology, 2015)

target: PhumOR2 (odorant receptor) (Pediculus humanus, UniProt A0ACM8QMA3); assay type: cell-based

SMILES | EC50 [µM]
CC(O)c1ccccc1 (stereo not drawn) [1-phenylethanol] | 1300
Cc1cccc(O)c1C [2,3-dimethylphenol] | 103
CC1CCC(O)CC1 (stereo not drawn) [4-methylcyclohexanol] | 120
